Experimental data reported in PubChem BioAssay (NCI).
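GI50 marks 50% less growth. TGI is the concentration that stops growth completely.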

Key:
Assay in all cases: NCI-60 cell line screen, 384-well format
[1] = system: 786-0 renal
[2] = system: A498 renal
[3] = system: A549 NSCLC
[4] = system: ACHN renal
[5] = system: BT-549 breast
[6] = system: CAKI-1 renal
[7] = system: CCRF-CEM leukemia
[8] = system: COLO 205 colon
[9] = system: DU-145 prostate
[10] = system: EKVX NSCLC
[11] = system: HCC-2998 colon
[12] = system: HCT-116 colon
[13] = system: HCT-15 colon
[14] = system: HL-60(TB) leukemia
[15] = system: HOP-62 NSCLC
[16] = system: HOP-92 NSCLC
[17] = system: HS 578T breast
[18] = system: HT29 colon
[19] = system: IGROV1 ovarian
[20] = system: K-562 leukemia
[21] = system: KM12 colon
[22] = system: LOX IMVI melanoma
[23] = system: M14 melanoma
[24] = system: MALME-3M melanoma
[25] = system: MCF7 breast
[26] = system: MDA-MB-231 breast
[27] = system: MDA-MB-435 melanoma
[28] = system: MDA-MB-468 breast
[29] = system: MOLT-4 leukemia
[30] = system: NCI-H226 lung
[31] = system: NCI-H23 lung
[32] = system: NCI-H322M lung
[33] = system: NCI-H460 NSCLC
[34] = system: NCI-H522 lung
[35] = system: NCI/ADR-RES ovarian
[36] = system: OVCAR-3 ovarian
[37] = system: OVCAR-4 ovarian
[38] = system: OVCAR-5 ovarian
[39] = system: PC-3 prostate
[40] = system: RPMI-8226 leukemia
[41] = system: RXF 393 renal
[42] = system: SF-268 CNS
[43] = system: SF-295 CNS
[44] = system: SF-539 CNS
[45] = system: SK-MEL-2 melanoma
[46] = system: SK-MEL-28 melanoma
[47] = system: SK-MEL-5 melanoma
[48] = system: SK-OV-3 ovarian
[49] = system: SN12C renal
[50] = system: SNB-19 CNS
[51] = system: SNB-75 CNS
[52] = system: SR leukemia
[53] = system: SW-620 colon
[54] = system: T-47D breast
[55] = system: TK-10 renal
[56] = system: U251 glioblastoma
[57] = system: UACC-257 melanoma
[58] = system: UACC-62 melanoma
[59] = system: UO-31 renal

SMILES: CC(C)[C@H](O)C(=O)N[C@@H](C)C(=O)N[C@@H]1C(=O)N(C)CCc2ccccc21
- GI50 [1]: > 100 µM
- TGI [1]: > 100 µM
- GI50 [2]: > 100 µM
- TGI [2]: > 100 µM
- GI50 [3]: > 100 µM
- TGI [3]: > 100 µM
- GI50 [4]: > 100 µM
- TGI [4]: > 100 µM
- GI50 [5]: > 100 µM
- TGI [5]: > 100 µM
- GI50 [6]: > 100 µM
- TGI [6]: > 100 µM
- GI50 [7]: > 100 µM
- TGI [7]: > 100 µM
- GI50 [8]: > 100 µM
- TGI [8]: > 100 µM
- GI50 [9]: > 100 µM
- TGI [9]: > 100 µM
- GI50 [10]: > 100 µM
- TGI [10]: > 100 µM
- GI50 [11]: > 100 µM
- TGI [11]: > 100 µM
- GI50 [12]: > 100 µM
- TGI [12]: > 100 µM
- GI50 [13]: > 100 µM
- TGI [13]: > 100 µM
- GI50 [14]: > 100 µM
- TGI [14]: > 100 µM
- GI50 [15]: > 100 µM
- TGI [15]: > 100 µM
- GI50 [16]: > 100 µM
- TGI [16]: > 100 µM
- GI50 [17]: > 100 µM
- TGI [17]: > 100 µM
- GI50 [18]: > 100 µM
- TGI [18]: > 100 µM
- GI50 [19]: > 100 µM
- TGI [19]: > 100 µM
- GI50 [20]: > 100 µM
- TGI [20]: > 100 µM
- GI50 [21]: > 100 µM
- TGI [21]: > 100 µM
- GI50 [22]: > 100 µM
- TGI [22]: > 100 µM
- GI50 [23]: > 100 µM
- TGI [23]: > 100 µM
- GI50 [24]: > 100 µM
- TGI [24]: > 100 µM
- GI50 [25]: > 100 µM
- TGI [25]: > 100 µM
- GI50 [26]: > 100 µM
- TGI [26]: > 100 µM
- GI50 [27]: > 100 µM
- TGI [27]: > 100 µM
- GI50 [28]: > 100 µM
- TGI [28]: > 100 µM
- GI50 [29]: > 100 µM
- TGI [29]: > 100 µM
- GI50 [30]: > 100 µM
- TGI [30]: > 100 µM
- GI50 [31]: > 100 µM
- TGI [31]: > 100 µM
- GI50 [32]: > 100 µM
- TGI [32]: > 100 µM
- GI50 [33]: > 100 µM
- TGI [33]: > 100 µM
- GI50 [34]: > 100 µM
- TGI [34]: > 100 µM
- GI50 [35]: > 100 µM
- TGI [35]: > 100 µM
- GI50 [36]: > 100 µM
- TGI [36]: > 100 µM
- GI50 [37]: > 100 µM
- TGI [37]: > 100 µM
- GI50 [38]: > 100 µM
- TGI [38]: > 100 µM
- GI50 [39]: > 100 µM
- TGI [39]: > 100 µM
- GI50 [40]: > 100 µM
- TGI [40]: > 100 µM
- GI50 [41]: > 100 µM
- TGI [41]: > 100 µM
- GI50 [42]: > 100 µM
- TGI [42]: > 100 µM
- GI50 [43]: > 100 µM
- TGI [43]: > 100 µM
- GI50 [44]: > 100 µM
- TGI [44]: > 100 µM
- GI50 [45]: > 100 µM
- TGI [45]: > 100 µM
- GI50 [46]: > 100 µM
- TGI [46]: > 100 µM
- GI50 [47]: > 100 µM
- TGI [47]: > 100 µM
- GI50 [48]: > 100 µM
- TGI [48]: > 100 µM
- GI50 [49]: > 100 µM
- TGI [49]: > 100 µM
- GI50 [50]: > 100 µM
- TGI [50]: > 100 µM
- GI50 [51]: > 100 µM
- TGI [51]: > 100 µM
- GI50 [52]: > 100 µM
- TGI [52]: > 100 µM
- GI50 [53]: > 100 µM
- TGI [53]: > 100 µM
- GI50 [54]: > 100 µM
- TGI [54]: > 100 µM
- GI50 [55]: > 100 µM
- TGI [55]: > 100 µM
- GI50 [56]: > 100 µM
- TGI [56]: > 100 µM
- GI50 [57]: > 100 µM
- TGI [57]: > 100 µM
- GI50 [58]: > 100 µM
- TGI [58]: > 100 µM

SMILES: N[C@H](CCC(=O)N[C@@H](Cc1c[nH]c2ccccc12)C(=O)O)C(=O)O
- GI50 [1]: > 100 µM
- TGI [1]: > 100 µM
- GI50 [2]: > 100 µM
- TGI [2]: > 100 µM
- GI50 [3]: > 100 µM
- TGI [3]: > 100 µM
- GI50 [4]: > 100 µM
- TGI [4]: > 100 µM
- GI50 [5]: > 100 µM
- TGI [5]: > 100 µM
- GI50 [6]: > 100 µM
- TGI [6]: > 100 µM
- GI50 [7]: > 100 µM
- TGI [7]: > 100 µM
- GI50 [8]: > 100 µM
- TGI [8]: > 100 µM
- GI50 [9]: > 100 µM
- TGI [9]: > 100 µM
- GI50 [10]: > 100 µM
- TGI [10]: > 100 µM
- GI50 [11]: > 100 µM
- TGI [11]: > 100 µM
- GI50 [12]: > 100 µM
- TGI [12]: > 100 µM
- GI50 [13]: > 100 µM
- TGI [13]: > 100 µM
- GI50 [14]: > 100 µM
- TGI [14]: > 100 µM
- GI50 [15]: > 100 µM
- TGI [15]: > 100 µM
- GI50 [16]: > 100 µM
- TGI [16]: > 100 µM
- GI50 [17]: > 100 µM
- TGI [17]: > 100 µM
- GI50 [18]: > 100 µM
- TGI [18]: > 100 µM
- GI50 [19]: > 100 µM
- TGI [19]: > 100 µM
- GI50 [20]: > 100 µM
- TGI [20]: > 100 µM
- GI50 [21]: > 100 µM
- TGI [21]: > 100 µM
- GI50 [22]: > 100 µM
- TGI [22]: > 100 µM
- GI50 [23]: > 100 µM
- TGI [23]: > 100 µM
- GI50 [24]: > 100 µM
- TGI [24]: > 100 µM
- GI50 [25]: > 100 µM
- TGI [25]: > 100 µM
- GI50 [26]: > 100 µM
- TGI [26]: > 100 µM
- GI50 [27]: > 100 µM
- TGI [27]: > 100 µM
- GI50 [28]: > 100 µM
- TGI [28]: > 100 µM
- GI50 [29]: > 100 µM
- TGI [29]: > 100 µM
- GI50 [30]: > 100 µM
- TGI [30]: > 100 µM
- GI50 [31]: > 100 µM
- TGI [31]: > 100 µM
- GI50 [32]: > 100 µM
- TGI [32]: > 100 µM
- GI50 [33]: > 100 µM
- TGI [33]: > 100 µM
- GI50 [34]: > 100 µM
- TGI [34]: > 100 µM
- GI50 [35]: > 100 µM
- TGI [35]: > 100 µM
- GI50 [36]: > 100 µM
- TGI [36]: > 100 µM
- GI50 [37]: > 100 µM
- TGI [37]: > 100 µM
- GI50 [38]: > 100 µM
- TGI [38]: > 100 µM
- GI50 [39]: > 100 µM
- TGI [39]: > 100 µM
- GI50 [40]: > 100 µM
- TGI [40]: > 100 µM
- GI50 [41]: > 100 µM
- TGI [41]: > 100 µM
- GI50 [42]: > 100 µM
- TGI [42]: > 100 µM
- GI50 [43]: > 100 µM
- TGI [43]: > 100 µM
- GI50 [44]: > 100 µM
- TGI [44]: > 100 µM
- GI50 [45]: > 100 µM
- TGI [45]: > 100 µM
- GI50 [46]: > 100 µM
- TGI [46]: > 100 µM
- GI50 [47]: > 100 µM
- TGI [47]: > 100 µM
- GI50 [48]: > 100 µM
- TGI [48]: > 100 µM
- GI50 [49]: > 100 µM
- TGI [49]: > 100 µM
- GI50 [50]: > 100 µM
- TGI [50]: > 100 µM
- GI50 [51]: > 100 µM
- TGI [51]: > 100 µM
- GI50 [52]: > 100 µM
- TGI [52]: > 100 µM
- GI50 [53]: > 100 µM
- TGI [53]: > 100 µM
- GI50 [54]: > 100 µM
- TGI [54]: > 100 µM
- GI50 [55]: > 100 µM
- TGI [55]: > 100 µM
- GI50 [56]: > 100 µM
- TGI [56]: > 100 µM
- GI50 [57]: > 100 µM
- TGI [57]: > 100 µM
- GI50 [58]: > 100 µM
- TGI [58]: > 100 µM
- GI50 [59]: > 100 µM
- TGI [59]: > 100 µM
